Laboratory results: article PMC8155176, “Reversible modulation of circadian time with chronophotopharmacology” (Nature Communications, 2021)
“Also recorded” adds a separate entry of the source. Read-outs that look alike come from different tables or passages of the source.

What was measured:
[1] = Chemical stability under dark and irradiation conditions followed by LCMS; type: physicochemical; settings: 40 µM in kinase assay buffer or cell culture medium, dark, 365 nm 3 h, 400 nm 30 min
Procedure: LCMS traces of stability studies
Supplementary Figure 8. Chemical stability of compound 3 under dark and irradiation conditions followed by LCMS. All the samples were prepared as 40 µM solution in buffer or cell culture medium. ‘Buffer’ and ‘medium’ samples were injected immediately upon dissolving compound 3, ‘buffer_3h_dark’ was injected after 3 h of keeping the solution in dark, ‘buffer_3h_365nm’ after irradiation of the sample for 3 h with UV light in kinase assay buffer, and ‘medium_30min_400nm’ after 30 min of irradiation with 400 nm in cell culture medium. The trans-isomer was followed at the retention time of 10.41-10.47 min and the cis-isomer at the retention time of 8.84-8.90 min. Mass spectra of both isomers in different […]
(1 picture or pasted object on this page, not shown here)

[2] = Solubility test in kinase assay buffer and cell culture medium; type: physicochemical
Procedure: Solubility studies were performed in kinase assay buffer and cell culture medium. Half of the solutions of the compounds in DMSO was thermally adapted (‘Dark’) and the other half was irradiated for 1 h with UV light (λmax = 365 nm, ‘Light’) green light in case of 9 (λmax = 530 nm, ‘Light’). Solubility is indicated in the Supplementary Table 1. […]
precipitation were excluded from the dose-response curves in the enzymatic assay .
Supplementary Table 1. Solubility of the photos witchable compounds in the highest concentrations that were used in the enzymatic assay.
Kinase assay buffer Cell culture medium […]

U2OS cells = experiment: Circadian period assay in Bmal1-dLuc U2OS reporter cells; type: cell-based, human
Procedure: Next, we tested if the observed light-dependent CKIα inhibition translates into photomodulation of the circadian period in human U2OS cells (Fig. 2d). The Bmal1-dLuc reporter cell line contains the coding sequence of destabilized luciferase driven by the Bmal1 gene promoter sequence. The cell culture medium for luminescence recording includes a high concentration of luciferin (0.2 mM), a substrate for luciferase, which strongly absorbs UV light (Supplementary Fig. 30). […] As the circadian period change is directly correlated with the potency and concentration of the inhibitor[10], the cells were treated with photoswitchable modulators using a broad range of concentrations.
In comparison to the kinase assay, the direct use of UV light for preventing a thermal back-isomerization of the cis-isomer was not feasible due to the cell-damaging effect and the presence of luciferin in the medium. Therefore, the modulators were kept in the dark or photo-isomerized in DMSO prior to the addition, without further irradiation during the circadian assay. All three modulators lengthened the period in the U2OS cells both in the dark and upon irradiation (Fig. 2d). […] Altogether, based on the efficient generation of the cis-isomer under irradiation, retained potency and promising light-modulation of CKIα inhibition, the meta-substituted modulator 4 was identified as representing lead substitution pattern for further investigation.
Stable U2OS reporter cells harboring Bmal1-dLuc reporter were suspended in phenol red-free culture medium [DMEM (D2902, Sigma) supplemented with 10% fetal bovine serum, 3.5 mg/mL D-glucose, 3.7 mg/mL sodium bicarbonate, 0.29 mg/mL L-glutamine, 100 units/mL penicillin, and 100 µg/mL streptomycin] and plated onto a white, solid-bottom 384-well plates at 30 µL (3000 cells) per well. After 2 days, 40 µL of phenol red-free explant medium [DMEM (D2902, Sigma) supplemented with 2% B27 (Gibco), 10 mM HEPES, 3.5 mg/mL D-glucose, 0.38 mg/mL sodium bicarbonate, 0.29 mg/mL L-glutamine, 100 units/mL penicillin, 100 µg/mL streptomycin, and 0.2 mM luciferin; pH 7.2] was dispensed into each well, followed by the application of 0.5 μL of compounds (dissolved in DMSO; final 0.7% DMSO; pre-irradiated with UV for 60 min, white LED for 10 min, and/or green LED for 60 min when indicated). The plate was covered with an optically clear film, and subjected to irradiation with 530 nm LED lamp (3 × 550 mW, λmax = 530 nm, FWHM 36 nm, Sahlmann Photochemical Solutions) or 400 nm LED lamp (3 × 1000 mW, λmax = 400 nm, FWHM 11.9 nm, Sahlmann Photochemical Solutions) from 12 cm distance for 30 min. Compound handling and irradiation were conducted in a dark room under red lamp illumination. Luminescence was recorded every 100 min in a microplate reader, Infinite M200Pro (Tecan). For the phase control experiments, cellular light irradiation was performed in a dark 32 °C room and luminescence was recorded in a microplate reader Synergy H1 (BioTek) placed in the same room, to avoid possible effect of transient temperature change on the phase. Circadian period and phase were determined from luminescence rhythms by a curve fitting program MultiCycle (Actimetrics). Data from the first day was excluded from analysis, because of transient changes in luminescence upon medium change. Statistical significance was evaluated using two-way analysis of variance (ANOVA) followed by a Sidak’s multiple comparisons test or one-way ANOVA followed by a Tukey’s multiple comparisons test using Prism software (GraphPad Software).

CKIα = target: T1, CKIα (Homo sapiens, UniProt P48729); experiment: In vitro kinase assay (Kinase Glo), CKIα; type: biochemical; settings: for light dependence of CKIα inhibition (in words): UV light 365 nm vs dark; for fold difference in CKIα inhibition between dark and UV-irradiated sample: trans vs cis-enriched (365 nm), 5 is stronger under light, the others weaker
T1 construct: purchased Invitrogen PV3850
T1 sequence (P48729 whole entry): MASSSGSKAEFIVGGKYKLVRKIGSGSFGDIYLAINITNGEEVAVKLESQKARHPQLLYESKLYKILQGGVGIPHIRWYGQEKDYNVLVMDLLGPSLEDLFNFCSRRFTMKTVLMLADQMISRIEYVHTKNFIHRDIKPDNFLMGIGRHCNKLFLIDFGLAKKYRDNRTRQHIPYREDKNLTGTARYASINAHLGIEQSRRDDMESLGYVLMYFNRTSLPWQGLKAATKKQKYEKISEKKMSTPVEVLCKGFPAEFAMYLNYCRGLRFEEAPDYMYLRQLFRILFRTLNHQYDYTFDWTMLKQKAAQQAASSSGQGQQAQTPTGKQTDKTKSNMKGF
Procedure: A stock solution of 7.4 mM in DMSO was prepared and thermally adapted by heating to c.a. 100 °C for 1 min. Two series of eight samples were prepared with consecutive three-time dilutions from the stock solution. One of the series (‘dark’ samples) was prepared in dark Eppendorf tube, the other series (‘light’ samples) was pre-irradiated with UV light (365 nm, UV lamp Spectroline, ENB-280/FE, 1 × 8 Watt) for 45 min. For compound 9, 1 mM solution in DMSO was thermally adapted by heating to 80 °C for 2 min and split into two vials. One vial was kept in the dark and the other was irradiated with green light (530 nm, 3x Nichia NCSG219B-V1, 3 × 550 mW, Sahlmann Photochemical Solutions) for 60 min. Both dark-kept and irradiated samples were subjected to 8-point 3-fold dilutions. All the solutions were applied to the well plate under a red lamp in the dark room in order to prevent ambient-light-induced photo-isomerization.
The assays were performed on a white, solid-bottom 384-well plates. The total volume for the reaction is 10.5 µl. Firstly, a solution of CKI and peptide was added to the bottom of the well (9 µL). Next, a corresponding solution of the compound (0.5 μL, final 5% DMSO) followed by 50 μM ATP solution (1 μL) were pipetted into the upper corners of each well. The enzymatic reaction was started by spinning down the plate (1800 x g, 2 min).
By employing this method, all reactions were started at the same time, minimizing variance between different samples. Incubation for 3 h at 30 °C or 2 h at 37 °C allowed for the enzymatic phosphorylation of the substrate peptide. As the reaction started, the wells with ‘light’ samples were irradiated with UV light or kept in dark in case of experiment with compound 9. ‘Dark’ (0 min pre-irradiation) wells were covered with an aluminum sticker from the beginning. After the incubation, 10 μL Kinase Glo® (Promega) was applied into the wells and the luminescent signal was recorded by a plate reader (BioTek Synergy H1 or Cytation).
The total volume for the reaction was 10.5 µl. The reaction mixture contained the following: for CKIδ, 4 ng/µl CKIδ (14-520, Eurofins), 50 µM peptide substrate RKKKAEpSVASLTSQCSYSS corresponding to human PER2 Lys659-Ser674, and CKI buffer (40 mM Tris, 10 mM MgCl2, 0.5 mM DTT, 0.1 mg/ml BSA, pH7.4); for CKIα, 1 ng/µl CKIα (PV3850, Invitrogen), 50 µM CKI peptide substrate (60547-1, Anaspec), and CKI buffer.
The data obtained from the in vitro kinase assay was analyzed using GraphPad software, in which the luminescence outcome is normalized. Normalization is done using a luminescent output of the control that contained high concentration of longdaysin (370 µM) as 100% inhibition and DMSO for 0% inhibition. In all graphs, a dose-response fit was used to obtain

[3] = irradiated with UV light (365 nm) before and during the assay, cis-enriched, read-out: CKIα IC50, light
[4] = thermally adapted trans-isomer kept in the dark, read-out: CKIα IC50, dark

Row | Compound | chemical stability (reduction or oxidation of the azo group) [1] | solubility in aqueous media (in words) [2] | light-induced change of period lengthening (U2OS cells; 72 μM, UV pre-irradiated vs dark) | IC50 (CKIα; [3]) [µM] | IC50 (CKIα; [4]) [µM] | influence of green or violet light on the period change (U2OS cells; control experiment) | light dependence of CKIα inhibition (in words) (CKIα) | effect of UV light irradiation on period lengthening (U2OS cells; UV (365 nm) pre-irradiated) | recovery of biological activity upon back-isomerization with white light (U2OS cells; UV light followed by white light) | period lengthening effect under dark conditions (U2OS cells; dark) | fold difference in CKIα inhibition between dark and UV-irradiated sample (CKIα) | period lengthening in U2OS cells (U2OS cells; 24 μM) [h] | light-modulation of period lengthening (U2OS cells; 24 μM, UV pre-irradiated vs dark) | light-induced deactivation of period lengthening (U2OS cells; 3 μM, UV pre-irradiated vs dark)
1 | CC(C)n1cnc2c(NCc3ccccc3/N=N/c3ccccc3)ncnc21 [Compound 5] | Products of reduction or oxidation were not observed | solubility issues at high concentrations | weak activation | 54 | 96 |  |  |  |  |  |  |  |  | 
2 | CC(C)n1cnc2c(NCc3cccc(C(F)(F)F)c3)ncnc21 [longdaysin, reference compound] |  |  |  | 4.3 |  | negligible influence | negligible effect of UV irradiation on the potency |  |  |  |  |  |  | 
3 | CC(C)n1cnc2c(NCc3cccc(/N=N/c4c(F)cccc4F)c3)ncnc21 [Compound 7] | Products of reduction or oxidation were not observed; also recorded: both chemical and photochemical stability |  |  | 9.3 | 2.4 |  |  | suppressed by UV light irradiation; also recorded: most pronounced period lengthening deactivation | partial recovery | strong period lengthening effect | four times less potent |  |  | 
4 | CC(C)n1cnc2c(NCc3ccc(/N=N/c4ccccc4)cc3)ncnc21 [Compound 3] | Products of reduction or oxidation were not observed |  |  | 4.5 | 3.6 |  | no obvious light-dependent changes of CKIα inhibition |  |  |  |  | 4 | no light-modulation | 
5 | COc1ccc(/N=N/c2cccc(CNc3ncnc4c3ncn4C(C)C)c2)cc1 [Compound 6] | Products of reduction or oxidation were not observed | increased solubility |  | 13.3 | 2.8 |  |  |  |  |  | 5 fold |  |  | 
6 | CC(C)n1cnc2c(NCc3cccc(/N=N/c4ccccc4)c3)ncnc21 [Compound 4] | Products of reduction or oxidation were not observed |  |  | 8.6 | 1.9 |  | substantial light-induced inactivation |  |  |  | 4.5 fold |  |  | ca. 2 h
